Several values for one entry are separate records, joined by “and”; a condition that tells them apart may be missing. Equal entries are not always repeated. Structures can show the parent of a compound that is named as a salt.
Row | melting point | Structure (SMILES)
1 | 116 °C | O=C1COC(c2ccc(C(F)(F)F)cc2)CN1 (configuration not stated) [flumetramide]
2 | 114 °C and 116 °C | c1ccc2c(c1)Cc1ccccc1-2 [fluorene]
3 | 8.3 °C and 8.32 °C | O=CO [formic acid]
4 | 134 °C | O=C(O)c1ccco1 [furoic acid]
5 | 205 °C | O=C(O)c1cc(O)ccc1O [gentisic acid]
6 | 97 °C | O=C(O)CCCC(=O)O [glutaric acid]
7 | 173 °C | COc1ccc(Cl)cc1C(=O)NCCc1ccc(S(=O)(=O)NC(=O)NC2CCCCC2)cc1 [glybenzcyclamide]
8 | 262 °C | NCC(=O)O [glycine]
9 | 219 °C | COC1=CC(=O)CC(C)C12Oc1c(Cl)c(OC)cc(OC)c1C2=O (configuration not stated) [griseofulvin]
10 | 219 °C | COC1=CC(=O)C[C@@H](C)[C@]12Oc1c(Cl)c(OC)cc(OC)c1C2=O [griseofulvin]
11 | 32 °C | Cc1ccc(C(C)C)cc2c(C)ccc1-2 [guaiazulene]
12 | 149 °C | O=C(CCCN1CCC(O)(c2ccc(Cl)cc2)CC1)c1ccc(F)cc1 [haloperidol] [listing 1 of 2 here]
13 | 152 °C | O=C(CCCN1CCC(O)(c2ccc(Cl)cc2)CC1)c1ccc(F)cc1 [haloperidol] [listing 2 of 2 here]
14 | 22 °C | CCCCCCCCCCCCCCCCC [heptadecane]
15 | 61 °C | CCCCCCCCCCCCCCCCC(=O)O [heptadecanoic acid]
16 | -91 °C and -90.6 °C | CCCCCCC [heptane]
17 | -8 °C | CCCCCCC(=O)O [heptanoic acid]
18 | -6 °C | CCCCCCC(=O)O [heptanoic_acid]
19 | 164 °C | Cc1c(C)c(C)c(C)c(C)c1C [hexamethylbenzene] [listing 1 of 2 here]
20 | 164 °C and 168 °C | Cc1c(C)c(C)c(C)c(C)c1C [hexamethylbenzene] [listing 2 of 2 here]
21 | -78 °C | C[Si](C)(C)N[Si](C)(C)C [hexamethyldisilazane]

Row | melting point | Structure (SMILES)
22 | -67 °C | C[Si](C)(C)O[Si](C)(C)C [hexamethyldisiloxane]
23 | -56 °C | CCCCCC=O [hexanal]
24 | -56 °C | CCCCCC=O [hexanaldehyde]
25 | -3 °C | CCCCCC(=O)O [hexanoic acid]
26 | -40 °C | CCCCCC(=O)OC(=O)CCCCC [hexanoic anhydride]
27 | -3 °C | CCCCCC(=O)O [hexanoic_acid]
28 | 101 °C | CCN(CC)CCNc1ccc(CO)c2sc3ccccc3c(=O)c12 [hycanthone]
29 | 272 °C | NS(=O)(=O)c1cc2c(cc1C(F)(F)F)NCNS2(=O)=O [hydroflumethiazide]
30 | -17 °C | CC(=O)CO [hydroxyacetone]
31 | 106 °C | N#Cc1ccc2[nH]ccc2c1 [indole-5-carbonitrile]
32 | 96 °C | CCOC(=O)Cc1c(C)n(C(=O)c2ccc(Cl)cc2)c2ccc(OC)cc12 [indomethacin ethyl ester]
33 | 159 °C and 160 °C | COc1ccc2c(c1)c(CC(=O)O)c(C)n2C(=O)c1ccc(Cl)cc1 [indomethacin] [listing 1 of 2 here]
34 | 160 °C | COc1ccc2c(c1)c(CC(=O)O)c(C)n2C(=O)c1ccc(Cl)cc1 [indomethacin] [listing 2 of 2 here]
35 | 61 °C | CC(C)c1ncc([N+](=O)[O-])n1C [ipronidazole]
36 | -80 °C | CC(C)COC(=O)C(C)C [isobutyl_isobutyrate]
37 | -8 °C | CC1=CC(=O)CC(C)(C)C1 [isophorone]
38 | 89 °C | O=Cc1cccc(C=O)c1 [isophthalaldehyde]
39 | -93 °C | CC(C)OC=O [isopropyl formate]
40 | 112 °C | CC(C)S[C@@H]1O[C@H](CO)[C@H](O)[C@H](O)[C@H]1O [isopropyl-beta-d-thiogalactoside]
41 | 146 °C | CC(=O)N1CCN(c2ccc(OC[C@H]3CO[C@](Cn4ccnc4)(c4ccc(Cl)cc4Cl)O3)cc2)CC1 [ketoconazol]
42 | 277 °C | N[C@@H](Cc1ccc(O)c(O)c1)C(=O)O [l-dopa]

Row | melting point | Structure (SMILES)
43 | 142 °C | CCOC(=O)CSCCC1NC(C(=O)O)CS1 (configuration not stated) [letosteine]
44 | 159 °C | Cc1cccc(C)c1NC(=O)CN1CCN(CCCC(c2ccc(F)cc2)c2ccc(F)cc2)CC1 [lidoflazine]
45 | 126 °C | CC(Oc1c(Cl)cccc1Cl)C1=NCCN1 (configuration not stated) [lofexidine]
46 | 240 °C | CCn1cc(C(=O)O)c(=O)c2cc(F)c(N3CCNC(C)C3)c(F)c21 (configuration not stated) [lomefloxacin]
47 | 238 °C | Clc1ccc(-c2nc3c4ccccc4ccn3n2)cc1 [lotrifen]
48 | 95 °C | Nc1cccc(CO)c1 [m-amino_benzyl_alcohol]
49 | 17 °C | Nc1cccc(Br)c1 [m-bromoaniline]
50 | 49 °C | N#Cc1cccc(-c2ccccc2)c1 [m-cyanobiphenyl]
51 | 36 °C | CC(=O)c1cccc(C(C)=O)c1 [m-diacetylbenzene]
52 | 53 °C | N#CCc1cccc(O)c1 [m-hydroxy_phenylacetonitrile]
53 | 115 °C | O=C(O)c1cccc(CO)c1 [m-hydroxymethyl_benzoic_acid]
54 | 28 °C | N#Cc1cccc(CO)c1 [m-hydroxymethyl_benzonitrile]
55 | 25 °C | Nc1cccc(I)c1 [m-iodoaniline]
56 | 119 °C | O=C(O)Cc1cccc([N+](=O)[O-])c1 [m-nitro_phenylacetic_acid]
57 | 96 °C | Cc1cccc(C(N)=O)c1 [m-toluamide]
58 | 54 °C | O=C1C=CC(=O)O1 [maleic anhydride]
59 | 230 °C | Cc1cccc(Nc2ccccc2C(=O)O)c1C [mefenamic acid]
60 | 224 °C | C=C1CC2C3C=C(C)C4=CC(=O)CCC4(C)C3CCC2(C)C1(OC(C)=O)C(C)=O (configuration not stated) [melengestrolacetate]
61 | 152 °C | O=C(O)CC(S)C(=O)O (configuration not stated) [mercaptosuccinic acid]

Row | Structure (SMILES) | melting point
62 | C(=C/C#N)C#N [fumaronitrile] | 97 °C
63 | OCc1ccco1 [furfuryl alcohol] | -31 °C
64 | N#CCCCC#N [glutaronitrile] | -29 °C
65 | COc1ccc2c(c1)[nH]c1c(C)nccc12 [harmine] | 264 °C
66 | CCC1(C2=CCCCCC2)C(=O)NC(=O)NC1=O [heptabarbital] | 175 °C
67 | CCCCCCC#N [heptanenitrile] | -64 °C
68 | ClC(Cl)=C(Cl)C(Cl)=C(Cl)Cl [hexachloro-1,3-butadiene] | -21 °C
69 | ClC(Cl)(Cl)C(Cl)(Cl)Cl [hexachloroethane] | 192 °C
70 | CCCCCCC#N [hexyl_cyanide] | -63 °C
71 | O=C(O)CI [iodoacetic acid] | 81 °C
72 | CCI [iodoethane] | -108 °C
73 | CI [iodomethane] | -66 °C
74 | ClC1C(Cl)C(Cl)C(Cl)C(Cl)C1Cl (configuration not stated) [lindane] | 114 °C
75 | Cl[C@H]1[C@H](Cl)[C@@H](Cl)[C@@H](Cl)[C@H](Cl)[C@H]1Cl [lindane] | 113 °C and 112 °C
76 | Oc1cccc(Cl)c1 [m-chlorophenol] | 34 °C
77 | Cc1cccc([N+](=O)[O-])c1 [m-nitrotoluene] | 16 °C
78 | Cc1cccc(C)c1 [m-xylene] | -47 °C
79 | ClCc1cccc(CCl)c1 [m-xylylene dichloride] | 35 °C
80 | N#CCC#N [malononitrile] | 34 °C
81 | CCC1(c2ccccc2)C(=O)NC(=O)N(C)C1=O (configuration not stated) [mephobarbital] | 176 °C
82 | Cc1cc(C)cc(C)c1 [mesitylene] | -45 °C
